Test results from patent US20220125752A1, “LEVODOPA DERIVATIVE AND USE THEREOF” (UNIVERSITY OF TSUKUBA, priority 2019, published 2022).

Tests used:
[1] = system: MPTP mouse model of Parkinson's disease; assay: Narrow beam walk test, intraperitoneal treatment; format: in vivo, C57BL/6J mice; conditions: Day 7; 15 mg/kg (in terms of L-DOPA) intraperitoneal; versus MPTP-administered group
Text: Male C57BL/6J mice, 15 weeks old, were used (see Chonpathompikunlert, P. (2018). BMC Complementary and Alternative Medicine, 18(103), 1 -12). […] The administration before treatment was to induce PD, and the administration after treatment was to visualize by a behavioral test. […] In this test, motor ability can be accessed by measuring the time until a mouse passes through a narrow bridge with a width of 1 cm, and the time increases with Parkinson's disease.

[2] = system: Parkinson's disease mouse models (MPTP); assay: Narrow beam walk test, oral administration; format: in vivo, C57BL/6J mice; conditions: oral L-DOPA 15 mg/kg; versus MPTP-administered group
Method: (§1) Male C57BL/6J mice, 15 weeks old, were used as models as in Test 2. A three-day training period was provided for the models prior to administration to familiarize them with the experimental apparatus. MPTP was administered intraperitoneally at 30 mg/kg every day for the first 5 days (sub-acute). After the administration of MPTP, oral administration of L-DOPA or Nano^DOPA (administered once daily with a tube) was started, and MPTP was administered intraperitoneally to Groups II and III on Day 9, 4 times daily, every 2 hours (acute). MPTP was also administered intraperitoneally in a similar manner to the remaining Group IV on Day 10. The catalepsy test was performed on the same day as the acute administration of MPTP. In addition, the narrow beam walk test (see Test 2 (4)) was performed 2 days after the catalepsy test. All the mice were euthanized the next day of the behavioral test. Each group described above was as follows, and the mice were randomized into the following four groups (n=8). II. MPTP 30 mg/kg, for 5 days (sub-acute)+MPTP 20 mg/kg, 4 times daily, every 2 hours (acute) MPTP 30 mg/kg, for 5 days (sub-acute)+MPTP 20 mg/kg, 4 times daily, every 2 hours (acute)+L-DOPA 15 mg/kg (oral) IV. MPTP 30 mg/kg, for 5 days (sub-acute)+MPTP 20 mg/kg, 4 times daily, every 2 hours (acute)+Nano^DOPA 1.5 mg/kg (given ad libitum) The results are shown in FIG. 21.

[3] = system: L-DOPA-induced dyskinesia in MPTP mice; assay: Slider test; format: in vivo, C57BL/6J mice; conditions: Day 17; 25 mg/kg (in terms of L-DOPA) with Benserazide 12 mg/kg for 17 days
Text: Male C57BL/6J mice, 15 weeks old, were used (see Chonpathompikunlert, P. (2018). BMC Complementary and Alternative Medicine, 18(103), 1 -12). […] The administration before treatment was to induce PD, and the administration after treatment was to visualize by a behavioral test. […] (6) In addition, in a slider test, motor ability can be assessed by measuring the time until each mouse becomes unable to walk on a slope of 26.5 degrees or slides down, and the time is expected to be shortened with Parkinson's disease.

[4] = Body weight change and health during treatment; format: in vivo, C57BL/6J mice; conditions: 15 mg/kg (in terms of L-DOPA) intraperitoneal for 11 days
Method: Male C57BL/6J mice, 15 weeks old, were used (see Chonpathompikunlert, P. (2018). BMC Complementary and Alternative Medicine, 18(103), 1 -12). A method of intraperitoneally administering 1-methyl-4-phenyl -1,2,3,6-tetrahydropyridine (MPTP) was used, but MPTP was administered before and after treatment with intraperitoneal administration of nanoparticles because of high recovery ability of mice themselves. The administration before treatment was to induce PD, and the administration after treatment was to visualize by a behavioral test.
The mice were randomly divided into the following four groups (n=4). • 1) Saline, for 12 days • 2) MPTP 20 mg/kg, 4 times daily, every 2 hours+saline, for 11 days+MPTP 30 mg/kg, for 3 days • 3) MPTP 20 mg/kg, 4 times daily, every 2 hours+L-DOPA 15 mg/kg, for 11 days+MPTP 30 mg/kg, for 3 days • 4) MPTP 20 mg/kg, 4 times daily, every 2 hours+NPs 15 mg/kg (in terms of L-DOPA), for 11 days+MPTP 30 mg/kg, for 3 days

[5] = system: Parkinson's disease mouse models (MPTP); assay: Catalepsy test, oral administration; format: in vivo, C57BL/6J mice; conditions: L-DOPA 15 mg/kg, Nano^DOPA 1.5 mg/kg (given ad libitum), same day as acute MPTP
Method: as §1

[6] = system: MPTP mouse model of Parkinson's disease; assay: Grid walking test, intraperitoneal treatment; format: in vivo, C57BL/6J mice; conditions: Day 11, after MPTP administered again; 15 mg/kg (in terms of L-DOPA) intraperitoneal for 11 days
Method: Male C57BL/6J mice, 15 weeks old, were used (see Chonpathompikunlert, P. (2018). BMC Complementary and Alternative Medicine, 18(103), 1 -12). […] The administration before treatment was to induce PD, and the administration after treatment was to visualize by a behavioral test. […] A grid walk test was performed as a behavioral test according to the above schedule, and the number of times the limbs of the mouse slipped into the opening was counted to test the balance ability.

[7] = system: L-DOPA-induced dyskinesia in MPTP mice; assay: Abnormal involuntary movement scale test (AIMS test); format: in vivo, C57BL/6J mice; conditions: Day 17; 25 mg/kg (in terms of L-DOPA) with Benserazide 12 mg/kg for 17 days
Method: Male C57BL/6J mice, 15 weeks old, were used (see Chonpathompikunlert, P. (2018). BMC Complementary and Alternative Medicine, 18(103), 1 -12). […] The administration before treatment was to induce PD, and the administration after treatment was to visualize by a behavioral test. […] An abnormal involuntary movement scale test (AIMS test) was performed as a behavioral test according to the above schedule, and the severity of dyskinesia was scored (0: no AIM, 1: AIM in <50%, 2: AIM in >50%, 3: continuous but stopped by stimulation, 4: continuous). Mice with a strong symptom of dyskinesia have a large score.

[8] = system: heart, lung, liver, spleen, and kidney; design: species or system mice; conditions: mouse, in vivo
Method: After the animals were euthanized, major organs were cut out from mouse models of Parkinson's disease (PD) and L-DOPA-induced dyskinesia (LID) and fixed in a 4% paraformaldehyde solution at 4° C. for 72 hours. These tissues were then processed using an automated tissue processor (TP1020, Leica, Germany). The samples embedded in paraffin were subsequently sliced to a thickness of […] with an automatic microtome and stained with hematoxylin and eosin (H&E) as well as Masson trichrome (MT). Histological evaluation was performed by observation under an optical microscope (DP73, Olympus, Japan) and assessment of the potential toxicity of the PEG-b-P(L-DOPA(OAc)2)-Npa (or Nano^DOPA) during the treatment.

Row | Compound | time to pass through narrow bridge (narrow beam walk) [1] | foot slip errors in narrow beam walk test [2] | slider test, walking on a slope of 26.5 degrees [3] | body weight after MPTP-induced loss [4] | health damage during the administration [4] | catalepsy test [5] | number of slipping in grid walking test [6] | severity of dyskinesia (AIMS observation) [7] | organ damage by H&E staining [8]
1 | N[C@@H](Cc1ccc(O)c(O)c1)C(=O)O [L-DOPA, 3,4-dihydroxy-L-phenylalanine] | improvement in therapeutic effect were continuously and significantly observed | significantly suppressed | sliding down due to involuntary movements of mice was observed only in the L-DOPA-administered group | rapidly recovered | no noticeable health damage was observed | no significant difference | no difference was observed in the L-DOPA-administered group compared to the non-treatment group | involuntary movements of the oral cavity and twisting of the body axis characteristic of dyskinesia were observed only in the L-DOPA-administered group | 
2 | PEG-b-P(L-DOPA(OAc)2) |  |  |  |  |  |  |  |  | does not damage each organ at all
